Measured values as given in publication PMC6407917, “Identification of GSK3186899/DDD853651 as a Preclinical Development Candidate for the Treatment of Visceral Leishmaniasis” (Journal of Medicinal Chemistry, 2018).

Key:
Assay in all cases: biochemical
Design in all cases: species or system HEK293/K-562/placenta mixed human extract; Kinobeads chemoproteomic competition binding, quantified by TMT LC-MS/MS, dose response up to 20 uM
[1] = target: CDK7 (Homo sapiens, UniProt P50613)
[2] = target: TBK1 (Homo sapiens, UniProt Q9UHD2)
[3] = target: WNK1 (Homo sapiens, UniProt Q9H4A3)
[4] = target: LCK (Homo sapiens, UniProt P06239)
[5] = target: MAPK8 (Homo sapiens, UniProt P45983)
[6] = target: BTK (Homo sapiens, UniProt Q06187)
[7] = target: MERTK (Homo sapiens, UniProt Q12866)
[8] = target: RIPK1 (Homo sapiens, UniProt Q13546)
[9] = target: PDXK (Homo sapiens, UniProt O00764)
[10] = target: CDK2 (Homo sapiens, UniProt P24941)
[11] = target: ACVR1 (Homo sapiens, UniProt Q04771)
[12] = target: MET (Homo sapiens, UniProt P08581)
[13] = target: CAMK2D (Homo sapiens, UniProt Q13557)
[14] = target: RPS6KA1 (Homo sapiens, UniProt Q15418)
[15] = target: PRKCB (Homo sapiens, UniProt P05771)
[16] = target: LIMK1 (Homo sapiens, UniProt P53667)
[17] = target: PFKL (Homo sapiens, UniProt P17858)
[18] = target: PRKAR2B (Homo sapiens, UniProt P31323)
[19] = target: FGR (Homo sapiens, UniProt P09769)
[20] = target: CSK (Homo sapiens, UniProt P41240)
[21] = target: MASTL (Homo sapiens, UniProt Q96GX5)

MERTK, sequence (Q12866 whole entry): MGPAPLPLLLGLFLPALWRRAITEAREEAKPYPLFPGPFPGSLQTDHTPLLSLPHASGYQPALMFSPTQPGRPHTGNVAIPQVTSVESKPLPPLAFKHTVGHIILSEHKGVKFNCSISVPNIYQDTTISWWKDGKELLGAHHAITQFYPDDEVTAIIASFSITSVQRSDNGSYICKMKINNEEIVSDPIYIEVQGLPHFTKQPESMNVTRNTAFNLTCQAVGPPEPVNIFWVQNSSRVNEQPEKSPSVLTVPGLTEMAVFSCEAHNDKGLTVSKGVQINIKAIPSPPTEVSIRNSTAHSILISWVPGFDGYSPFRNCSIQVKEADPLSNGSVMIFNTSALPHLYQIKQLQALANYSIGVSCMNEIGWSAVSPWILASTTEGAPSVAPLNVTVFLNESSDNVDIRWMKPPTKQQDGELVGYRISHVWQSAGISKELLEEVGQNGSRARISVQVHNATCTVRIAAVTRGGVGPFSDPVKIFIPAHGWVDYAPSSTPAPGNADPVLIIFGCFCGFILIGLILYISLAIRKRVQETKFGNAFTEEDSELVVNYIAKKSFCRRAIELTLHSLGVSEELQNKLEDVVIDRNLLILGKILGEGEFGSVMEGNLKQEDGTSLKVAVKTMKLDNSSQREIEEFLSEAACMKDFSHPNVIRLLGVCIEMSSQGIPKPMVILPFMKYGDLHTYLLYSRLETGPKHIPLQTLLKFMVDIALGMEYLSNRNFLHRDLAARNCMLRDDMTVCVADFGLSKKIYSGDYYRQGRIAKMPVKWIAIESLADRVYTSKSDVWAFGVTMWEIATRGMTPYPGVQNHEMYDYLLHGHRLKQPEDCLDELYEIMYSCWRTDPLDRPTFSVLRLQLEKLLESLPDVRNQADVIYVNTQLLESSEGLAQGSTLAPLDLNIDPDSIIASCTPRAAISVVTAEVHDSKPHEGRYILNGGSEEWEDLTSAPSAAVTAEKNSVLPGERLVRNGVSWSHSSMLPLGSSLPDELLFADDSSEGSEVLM
PFKL, sequence (P17858 whole entry): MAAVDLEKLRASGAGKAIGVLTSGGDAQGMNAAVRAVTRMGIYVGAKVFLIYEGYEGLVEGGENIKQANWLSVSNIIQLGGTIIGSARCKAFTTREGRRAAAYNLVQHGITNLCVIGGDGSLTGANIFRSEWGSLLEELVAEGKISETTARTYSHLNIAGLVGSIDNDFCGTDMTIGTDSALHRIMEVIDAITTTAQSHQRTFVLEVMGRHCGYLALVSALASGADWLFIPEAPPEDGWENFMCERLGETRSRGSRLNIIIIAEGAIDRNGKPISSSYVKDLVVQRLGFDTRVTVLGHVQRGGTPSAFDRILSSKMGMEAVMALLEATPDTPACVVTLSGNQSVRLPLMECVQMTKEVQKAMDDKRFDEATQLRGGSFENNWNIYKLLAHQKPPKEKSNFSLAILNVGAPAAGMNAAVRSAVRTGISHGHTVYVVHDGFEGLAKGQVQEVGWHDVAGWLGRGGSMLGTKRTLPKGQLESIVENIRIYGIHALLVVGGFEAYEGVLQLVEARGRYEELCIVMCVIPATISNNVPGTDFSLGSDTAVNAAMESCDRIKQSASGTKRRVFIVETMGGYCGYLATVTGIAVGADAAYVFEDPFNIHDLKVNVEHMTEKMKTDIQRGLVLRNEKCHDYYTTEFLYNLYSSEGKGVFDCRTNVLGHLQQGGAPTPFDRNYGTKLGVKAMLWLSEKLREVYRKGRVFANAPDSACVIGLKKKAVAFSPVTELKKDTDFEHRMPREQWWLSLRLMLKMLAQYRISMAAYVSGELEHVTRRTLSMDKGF
CAMK2D, sequence (Q13557 whole entry): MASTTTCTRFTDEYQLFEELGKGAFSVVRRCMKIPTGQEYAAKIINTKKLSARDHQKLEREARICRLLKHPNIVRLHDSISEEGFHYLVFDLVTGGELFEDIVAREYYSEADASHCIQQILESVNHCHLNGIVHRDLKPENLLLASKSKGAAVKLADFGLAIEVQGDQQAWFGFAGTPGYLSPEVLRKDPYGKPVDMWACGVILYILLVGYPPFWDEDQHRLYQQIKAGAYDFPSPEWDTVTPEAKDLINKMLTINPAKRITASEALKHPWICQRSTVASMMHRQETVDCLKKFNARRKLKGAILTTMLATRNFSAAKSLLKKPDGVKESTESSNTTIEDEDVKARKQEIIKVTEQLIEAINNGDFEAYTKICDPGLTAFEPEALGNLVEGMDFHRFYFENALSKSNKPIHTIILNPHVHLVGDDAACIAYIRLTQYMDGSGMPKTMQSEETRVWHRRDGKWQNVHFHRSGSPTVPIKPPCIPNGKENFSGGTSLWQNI
PRKAR2B, sequence (P31323 whole entry): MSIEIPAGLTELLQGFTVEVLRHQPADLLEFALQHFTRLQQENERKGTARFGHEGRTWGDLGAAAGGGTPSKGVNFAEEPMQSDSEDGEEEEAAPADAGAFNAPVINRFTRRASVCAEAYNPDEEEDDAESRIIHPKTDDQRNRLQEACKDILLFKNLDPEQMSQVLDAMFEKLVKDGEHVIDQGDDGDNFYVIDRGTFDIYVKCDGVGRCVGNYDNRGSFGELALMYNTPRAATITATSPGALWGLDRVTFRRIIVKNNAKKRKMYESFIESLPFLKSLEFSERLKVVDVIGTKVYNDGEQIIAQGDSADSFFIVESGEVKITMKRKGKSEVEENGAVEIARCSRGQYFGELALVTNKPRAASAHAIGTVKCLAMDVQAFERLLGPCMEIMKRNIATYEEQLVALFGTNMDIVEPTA
PRKCB, sequence (P05771 whole entry): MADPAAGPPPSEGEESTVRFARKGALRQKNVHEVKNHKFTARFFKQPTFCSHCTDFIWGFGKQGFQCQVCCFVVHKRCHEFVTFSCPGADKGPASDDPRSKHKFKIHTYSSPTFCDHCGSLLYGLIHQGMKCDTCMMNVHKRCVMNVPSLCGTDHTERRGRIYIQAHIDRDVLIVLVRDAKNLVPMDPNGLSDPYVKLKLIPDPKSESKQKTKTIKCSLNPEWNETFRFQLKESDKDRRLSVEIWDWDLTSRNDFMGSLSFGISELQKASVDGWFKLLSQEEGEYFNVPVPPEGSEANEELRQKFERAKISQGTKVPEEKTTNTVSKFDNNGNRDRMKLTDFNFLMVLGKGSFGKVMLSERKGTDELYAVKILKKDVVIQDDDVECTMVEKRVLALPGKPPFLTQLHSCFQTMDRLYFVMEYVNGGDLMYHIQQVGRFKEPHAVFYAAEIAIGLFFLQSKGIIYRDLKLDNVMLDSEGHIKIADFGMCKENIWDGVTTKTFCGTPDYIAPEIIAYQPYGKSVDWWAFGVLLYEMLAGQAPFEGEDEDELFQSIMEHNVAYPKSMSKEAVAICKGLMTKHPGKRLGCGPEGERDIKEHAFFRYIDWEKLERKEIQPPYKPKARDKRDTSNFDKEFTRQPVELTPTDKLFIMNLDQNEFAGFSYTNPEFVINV
FGR, sequence (P09769 whole entry): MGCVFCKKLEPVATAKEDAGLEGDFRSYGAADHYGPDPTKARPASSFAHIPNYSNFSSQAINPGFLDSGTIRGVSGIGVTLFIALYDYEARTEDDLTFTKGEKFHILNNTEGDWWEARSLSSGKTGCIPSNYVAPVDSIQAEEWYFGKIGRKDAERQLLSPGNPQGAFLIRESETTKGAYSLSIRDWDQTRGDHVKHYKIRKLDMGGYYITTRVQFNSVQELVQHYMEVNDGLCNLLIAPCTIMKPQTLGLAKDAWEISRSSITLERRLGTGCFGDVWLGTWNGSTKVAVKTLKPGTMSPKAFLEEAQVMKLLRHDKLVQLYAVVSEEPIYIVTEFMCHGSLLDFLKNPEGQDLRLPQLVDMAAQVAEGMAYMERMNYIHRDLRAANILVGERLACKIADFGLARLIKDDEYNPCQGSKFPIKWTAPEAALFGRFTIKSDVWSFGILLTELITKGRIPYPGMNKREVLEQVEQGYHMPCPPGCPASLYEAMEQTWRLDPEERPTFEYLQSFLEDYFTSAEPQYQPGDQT
LCK, sequence (P06239 whole entry): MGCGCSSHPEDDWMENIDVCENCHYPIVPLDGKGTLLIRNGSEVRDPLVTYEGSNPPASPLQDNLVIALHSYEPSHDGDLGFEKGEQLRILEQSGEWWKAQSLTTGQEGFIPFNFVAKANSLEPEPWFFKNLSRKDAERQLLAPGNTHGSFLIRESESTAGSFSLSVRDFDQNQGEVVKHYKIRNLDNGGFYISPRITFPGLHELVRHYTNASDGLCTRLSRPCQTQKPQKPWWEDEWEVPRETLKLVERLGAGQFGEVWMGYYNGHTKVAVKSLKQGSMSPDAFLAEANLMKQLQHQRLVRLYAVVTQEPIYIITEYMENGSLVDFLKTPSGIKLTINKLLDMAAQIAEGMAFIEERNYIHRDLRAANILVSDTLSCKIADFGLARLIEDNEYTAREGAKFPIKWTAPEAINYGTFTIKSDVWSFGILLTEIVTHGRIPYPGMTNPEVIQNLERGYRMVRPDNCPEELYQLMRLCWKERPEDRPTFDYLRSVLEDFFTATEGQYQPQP
ACVR1, sequence (Q04771 whole entry): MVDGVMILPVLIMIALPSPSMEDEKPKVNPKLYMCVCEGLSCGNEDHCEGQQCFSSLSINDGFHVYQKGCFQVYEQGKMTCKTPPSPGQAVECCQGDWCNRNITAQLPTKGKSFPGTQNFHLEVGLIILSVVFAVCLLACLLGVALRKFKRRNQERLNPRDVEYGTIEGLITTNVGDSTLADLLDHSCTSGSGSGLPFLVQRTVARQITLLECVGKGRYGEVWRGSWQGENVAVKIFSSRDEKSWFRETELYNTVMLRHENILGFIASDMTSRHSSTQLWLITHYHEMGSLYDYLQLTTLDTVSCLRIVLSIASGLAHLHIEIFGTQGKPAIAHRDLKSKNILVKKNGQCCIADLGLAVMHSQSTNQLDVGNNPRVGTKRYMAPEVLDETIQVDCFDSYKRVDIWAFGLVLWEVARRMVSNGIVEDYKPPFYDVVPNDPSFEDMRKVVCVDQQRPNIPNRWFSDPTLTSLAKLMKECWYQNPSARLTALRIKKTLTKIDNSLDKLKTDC

- IC50 [1]: ≥ 20 µM
- IC50 [2]: ≥ 20 µM
- IC50 [3]: ≥ 20 µM
- IC50 [4]: ≥ 20 µM
- IC50 [5]: ≥ 20 µM
- IC50 [6]: ≥ 20 µM
- IC50 [7]: ≥ 20 µM
- IC50 [8]: ≥ 20 µM
- IC50 [9]: ≥ 20 µM
- IC50 [10]: 1200 nM
- IC50 [11]: ≥ 20 µM
- IC50 [12]: ≥ 20 µM
- IC50 [13]: ≥ 20 µM
- IC50 [14]: ≥ 20 µM
- IC50 [15]: ≥ 20 µM
- IC50 [16]: ≥ 20 µM
- IC50 [17]: ≥ 20 µM
- IC50 [18]: ≥ 20 µM
- IC50 [19]: ≥ 20 µM
- IC50 [20]: ≥ 20 µM
- IC50 [21]: ≥ 20 µM
Compound: COc1ccccc1-c1n[nH]c2nc(N[C@H]3CC[C@H](NS(=O)(=O)CCC(F)(F)F)CC3)nc(OC)c12 [compound 31, 3,3,3-Trifluoro-N-(trans-4-((4-methoxy-3-(2-methoxyphenyl)-1H-pyrazolo[3,4-d]pyrimidin-6-yl)amino)cyclohexyl)propane-1-sulfonamide]
